{
  "source": "patent US8309351B2",
  "about": "“Methods of identifying agents that inhibit angiogenesis” (Bionomics Limited, priority 2007, dated 2012)",
  "origin": "cited, not measured here",
  "system": "lung cancer cells",
  "settings": "knock-down of beta III tubulin in lung cancer cells",
  "data": [
    {"molecule": "CC(=O)O[C@H]1C(=O)[C@@]2(C)[C@H]([C@H](OC(=O)c3ccccc3)[C@]3(O)C[C@H](OC(=O)[C@H](O)[C@@H](NC(=O)c4ccccc4)c4ccccc4)C(C)=C1C3(C)C)[C@]1(OC(C)=O)CO[C@@H]1C[C@@H]2O", "note": "[paclitaxel]", "values": [
      {"measurement": "increase in paclitaxel sensitivity", "result": 39, "unit": "%"}
    ]}
  ]
}
